Read-outs that look alike come from different tables or passages of the source. Square brackets hold non-standard residues; d marks the D form. Peptide text beside a SMILES is read from it. * marks the point of attachment. X1 = CC(C)CCC[C@@H](C)[C@H]1CC[C@H]2[C@@H]3CC=C4C[C@@H](OC(=O)C*)CC[C@]4(C)[C@H]3CC[C@]12C; Palmitoyl = CCCCCCCCCCCCCCCC(=O)*; βAla = NCCC(=O)O
Experiments:
[1] = tested on: HIV-1 Env-mediated cell–cell fusion (H9/HIV-1 IIIB cells and MT-2 cells); type: cell-based; conditions: for IC50: Calcein AM-labelled H9/HIV-1 IIIB cells, peptide 30 min at 37 °C, then MT-2 cells 2 h, fused cells counted by fluorescence microscopy, triplicate, mean ± SD, read-out: IC50, inhibitory activity on HIV-1 Env-mediated cell–cell fusion
Protocol: 4.2. HIV-1 Env-Mediated Cell–Cell Fusion Assay
Briefly, the fluorescent reagent Calcein AM (abcam, Shanghai, China) was used to label H9/HIV-1 IIIB cells (obtained from the Inner Mongolia Autonomous Region New Drug Screening Engineering Research Center in Inner Mongolia Medical University, Hohhot, China). First, 2.5 μL of Calcein AM was used to stain 2 × 10^5 H9/HIV-1 IIIB cells. After labeling at 37 °C for 30 min, the cells were washed twice with PBS (Thermo Fisher Scientific, Waltham, MA, USA) and resuspended in fresh RPMI 1640 (Sigma-Aldrich, St. Louis, MO, USA) medium supplemented with 10% FBS. Next, 50 μL of diluted peptides and 50 μL of a mixture containing 2 × 10^5 H9/HIV-1 IIIB cells/mL were added to a 96-well cell culture plate and incubated at 37 °C for 30 min. Subsequently, 1 × 10^5 MT-2 cells were added to the mixture and cultured at 37 °C for 2 h. The fused cells were quantified using an inverted fluorescence microscope. The IC50 values were calculated using CalcuSyn software (Version 2.0).

[2] = tested on: HIV-1 pseudovirus derived from the JFRL macrophagic strain (subtype B) on U87 CD4+ CCR5+ cells; type: cell-based; conditions: luciferase read-out 48 h post-infection
Protocol: 4.3. Neutralization Assay of HIV-1 Pseudovirus
Briefly, U87 CD4^+ CCR5^+ cells (obtained from the Inner Mongolia Autonomous Region New Drug Screening Engineering Research Center in Inner Mongolia Medical University, Hohhot, China) (1 × 10^4 cells/well) were plated in 96-well tissue culture plates and incubated at 37 °C in a humidified 5% CO2 atmosphere for 12 h to allow cell adherence. Serial dilutions of the test peptides were prepared, and each dilution was mixed with the HIV-1 pseudovirus derived from the JFRL macrophagic strain (subtype B). After incubating the virus-peptide mixtures at 37 °C for 30 min to allow interaction, the mixtures were transferred to the pre-seeded U87 CD4^+ CCR5^+ cells. At 12 h post-infection, the culture medium was refreshed to remove unbound viruses and excess peptides. Forty-eight hours post-infection, the cells were lysed using Cell Culture Lysis Reagent (Promega, Madison, WI, USA), and the luminescence intensity (reflecting luciferase activity) was quantified using the Luciferase Assay System (Promega, E4030) according to the manufacturer’s instructions.

[3] = target: T1, N36/C34 six-helix bundle (6-HB) (Human immunodeficiency virus type 1 group M subtype B, UniProt P04578); experiment: SE-HPLC analysis of 6-HB formation between N36 and C34; type: biochemical, HIV-1; conditions: gradual addition of peptide to the C34/N36 mixture; PBS pH 7.4, BioSep-SEC-S2000, 210 nm
T1 construct: corresponding to the NHR region of gp41 (residues 546–581); made in house; host or cells: chemical synthesis (Fmoc solid-phase)
T1 sequence (P04578 546-581): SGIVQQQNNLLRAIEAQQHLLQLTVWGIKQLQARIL

[4] = target: T1, N36/C34 six-helix bundle (6-HB); experiment: N-PAGE detection of blocking of 6-HB formation between C34 and N36; type: biochemical, HIV-1; conditions: N36 (20 μM) with rising peptide concentration, 37 °C 30 min, then C34 (20 μM) 30 min
Protocol: Figure 5 (A) N-PAGE to detect the blocking of 6-HB formation between C34 and N36 by EK35S peptide. N36 (20 μM) with or without EK35S was incubated at 37 °C for 30 min, followed by the addition of C34 (20 μM). The mixture was incubated at 37 °C for another 30 min before loading into the gel; (B) N-PAGE to detect the blocking of 6-HB formation between C34 and N36 by EK35S-Plam peptide. N36 (20 μM) with or without EK35S-Plam was incubated at 37 °C for 30 min, followed by the addition of C34 (20 μM). The mixture was incubated at 37 °C for another 30 min before loading into the gel.
4.6. Methods for Native Polyacrylamide Gel Electrophoresis (N-PAGE)
Peptides, as well as their equimolar mixtures, were prepared at a final concentration of 100 μM in PBS (10 mM, pH 7.4) and incubated at 37 °C for 30 min. After incubation, the peptide solutions were mixed with methyl green loading buffer in a 1:1 ratio, and 20 μL of each sample was loaded into the wells of the gel. Gel electrophoresis was performed at room temperature, initially at a constant voltage of 90 V for 0.5 h, followed by 150 V for 2–3 h. The gels were then stained with Coomassie Brilliant Blue G250 (Bio-Rad, Shanghai, China), and images were captured using the ChampGel 6000 Imaging System (Sage Creation Ltd., Beijing, China).

[5] = liver microsomes
Protocol: Phase I Metabolic Stability Assay
(§1) Experiments were carried out using the Phase I Metabolic Stability Research Kit (IPHASE, Suzhou, China). Solution A in the kit was pre-incubated at 37 °C for 5 min, and solution B was prepared from PBS (100 mM), the subject (or positive substrate), and liver microsomes. The above two were mixed and immediately placed in a 37 °C water bath for incubation. The incubation solution is quantitatively removed from the incubation system at preset time points (0, 5, 10, 15, 30, 60 min), and an equal volume of termination solution is added. Each sample was run in parallel three times. The substrate remaining amount at each time point was determined by RP-HPLC (Shimadzu preparative HPLC system, Shimadzu Corporation, Kyoto, Japan), the substrate remaining percentage was calculated, and the slope k was determined by linear regression analysis to calculate the Elimination half-life and Hepatic microsomal intrinsic clearance.

in vitro = conditions: liver microsomes
Protocol: Phase I Metabolic Stability Assay
as §1

| Molecule | IC50 [1] [µM] | IC50 [2] [µM] | further results |
| --- | --- | --- | --- |
| CC[C@H](C)[C@H](NC(C)=O)C(=O)N[C@@H](CCC(=O)O)C(=O)N[C@@H](CCC(=O)O)C(=O)N[C@@H](CC(C)C)C(=O)N[C@@H](CO)C(=O)N[C@@H](CCCCN)C(=O)N[C@@H](CCCCN)C(=O)N[C@H](C(=O)N[C@@H](CCC(=O)O)C(=O)N[C@@H](CCC(=O)O)C(=O)N[C@@H](CC(C)C)C(=O)N[C@@H](CO)C(=O)N[C@@H](CCCCN)C(=O)N[C@@H](CCCCN)C(=O)N[C@H](C(=O)N[C@@H](CCC(=O)O)C(=O)N[C@@H](CCC(=O)O)C(=O)N[C@@H](CC(C)C)C(=O)N[C@@H](CO)C(=O)N[C@@H](CCCCN)C(=O)N[C@@H](CCCCN)C(=O)N[C@H](C(=O)N[C@@H](CCC(=O)O)C(=O)N[C@@H](CCC(=O)O)C(=O)N[C@@H](CC(C)C)C(=O)N[C@@H](CO)C(=O)N[C@@H](CCCCN)C(=O)N[C@@H](CCCCN)C(=O)N[C@H](C(=O)N[C@@H](CCC(=O)O)C(=O)N[C@@H](CCC(=O)O)C(=O)N[C@@H](CC(C)C)C(=O)N[C@@H](CO)C(=O)N[C@@H](CCCCN)C(=O)N[C@@H](CCCCN)C(=O)NCCC(=O)N[C@@H](CSCC(=O)O[C@H]1CC[C@@]2(C)C(=CC[C@H]3[C@@H]4CC[C@H]([C@H](C)CCCC(C)C)[C@@]4(C)CC[C@@H]32)C1)C(N)=O)[C@@H](C)CC)[C@@H](C)CC)[C@@H](C)CC)[C@@H](C)CC [EK35S-Chol] (Ac-IEELSKKIEELSKKIEELSKKIEELSKKIEELSKK[βAla]C(X1)-NH2) | > 100 | 85.7 ± 2.02 | – |
| CCCCCCCCCCCCCCCC(=O)NCCCC[C@H](NC(=O)CCNC(=O)[C@H](CCCCN)NC(=O)[C@H](CCCCN)NC(=O)[C@H](CO)NC(=O)[C@H](CC(C)C)NC(=O)[C@H](CCC(=O)O)NC(=O)[C@H](CCC(=O)O)NC(=O)[C@@H](NC(=O)[C@H](CCCCN)NC(=O)[C@H](CCCCN)NC(=O)[C@H](CO)NC(=O)[C@H](CC(C)C)NC(=O)[C@H](CCC(=O)O)NC(=O)[C@H](CCC(=O)O)NC(=O)[C@@H](NC(=O)[C@H](CCCCN)NC(=O)[C@H](CCCCN)NC(=O)[C@H](CO)NC(=O)[C@H](CC(C)C)NC(=O)[C@H](CCC(=O)O)NC(=O)[C@H](CCC(=O)O)NC(=O)[C@@H](NC(=O)[C@H](CCCCN)NC(=O)[C@H](CCCCN)NC(=O)[C@H](CO)NC(=O)[C@H](CC(C)C)NC(=O)[C@H](CCC(=O)O)NC(=O)[C@H](CCC(=O)O)NC(=O)[C@@H](NC(=O)[C@H](CCCCN)NC(=O)[C@H](CCCCN)NC(=O)[C@H](CO)NC(=O)[C@H](CC(C)C)NC(=O)[C@H](CCC(=O)O)NC(=O)[C@H](CCC(=O)O)NC(=O)[C@@H](NC(C)=O)[C@@H](C)CC)[C@@H](C)CC)[C@@H](C)CC)[C@@H](C)CC)[C@@H](C)CC)C(N)=O [EK35S-Palm] (Ac-IEELSKKIEELSKKIEELSKKIEELSKKIEELSKK[βAla]K(Palmitoyl)-NH2) | – | – | fold more potent than the parent EK35S ([1]; cell–cell fusion and pseudovirus inhibition (Table 2 and Figure 3)): over 200 fold; effect on the 6-HB complex peak (SE-HPLC) [3]: decreased significantly; effect on the 6-HB band (N-PAGE) [4]: gradually became significantly lighter; half-life [5]: 3.61 h |
| Ac-IEELFKKIEELFKKIEELFKKIEELFKKIEELFKK-NH2 [EK35F] | 92.4 ± 9.22 | 110 ± 2.37 | – |
| Ac-IEELIKKIEELIKKIEELIKKIEELIKKIEELIKK-NH2 [EK35] | > 100 | 119 ± 1.39 | – |
| Ac-IEELMKKIEELMKKIEELMKKIEELMKKIEELMKK-NH2 [EK35M] | 15.8 ± 8.92 | 25.3 ± 0.85 | – |
| Ac-IEELSKKIEELSKKIEELSKKIEELSKKIEELSKK-NH2 [EK35S] | 5.98 ± 1.23 | 2.42 ± 0.18 | effect on the 6-HB complex peak (SE-HPLC) [3]: does not affect 6-HB peak; effect on the 6-HB band (N-PAGE) [4]: no obvious change; half-life (in vitro): 2.22 h |
| Ac-IEELYKKIEELYKKIEELYKKIEELYKKIEELYKK-NH2 [EK35Y] | 23.2 ± 6.72 | 15.2 ± 0.65 | – |
| Enfuvirtide | 0.008 ± 0.002 | 0.00824 ± 0.00087 | – |
| IEELSKK IEELSKK IEELSKK IEELSKK IEELSKK-OApc [EK35S-OApc, EK35S conjugated with protected oleanolic acid derivative OApc via click chemistry] | 4.82 ± 0.89 | 1.88 ± 0.14 | – |
| enfuvirtide | – | – | half-life (in vitro): 2.51 h |
